Legend:
[1] = system: giant foxtail; test: Test A preemergence; assay type: in vivo, Setaria faberii; details: Setaria faberi, pre-emergence, 240 h, 0 to 100 scale where 0 is no effect and 100 is complete control
How it was run: (§1)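 Visual 0–100 rating (100 = complete control) taken about 10 d post-treatment relative to untreated checks. Preemergence: directed soil spray on sown loam/sand pots. Postemergence: seedlings 2–10 cm, 1–2 leaf. Non-phytotoxic solvent formulation with surfactant.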

[2] = system: barnyardgrass; test: Test A postemergence; assay type: in vivo, Echinochloa crus-galli; details: Echinochloa crus-galli, post-emergence, 240 h, 0 to 100 scale where 0 is no effect and 100 is complete control
How it was run: as §1

[3] = system: pigweed; test: Test A postemergence; assay type: in vivo, Amaranthus retroflexus; details: Amaranthus retroflexus, post-emergence, 0 to 100 scale where 0 is no effect and 100 is complete control
How it was run: as §1

[4] = system: barnyardgrass; test: Test B flooded paddy test; assay type: in vivo, Echinochloa crus-galli; details: Echinochloa crus-galli; Flood, 250 g ai/ha; 0 to 100 scale where 0 is no effect and 100 is complete control; read-out: Plant response rating, Barnyardgrass
How it was run: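 Visual ratings on a 0 to 100 scale, where 100 means complete control, compared treated plants with controls after 13 to 15 days in a greenhouse. Treatment went into paddy water 3 cm deep over the soil, applied to plants at the 2-leaf stage.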

[5] = system: galium; test: Test C preemergence; assay type: in vivo, Galium aparine; details: Galium, pre-emergence
How it was run: (§2)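 Greenhouse herbicide screen. Pre: seeded loam/sand, sprayed at planting. Post: 1–4 leaf plants (2–18 cm) in peat-based mix. Formulation: solvent mixture + surfactant, non-phytotoxic. Readout: visual % control vs untreated, 13–15 d; dash = not tested.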

[6] = system: morningglory; test: Test C preemergence; assay type: in vivo, Ipomoea coccinea; details: Ipomoea, pre-emergence, preemergence, read-out: Morningglory plant response rating
How it was run: as §2

[7] = system: soybean; test: Test C preemergence; assay type: in vivo, Glycine max; details: Glycine max, pre-emergence, preemergence, read-out: Soybean plant response rating
How it was run: as §2

[8] = system: barnyardgrass; test: Test C preemergence; assay type: in vivo, Echinochloa crus-galli; details: Echinochloa crus-galli, pre-emergence
How it was run: as §2

[9] = system: oilseed rape; test: Test C preemergence; assay type: in vivo, Brassica napus; details: Brassica napus, pre-emergence, preemergence, read-out: Oilseed Rape plant response rating
How it was run: as §2

[10] = system: waterhemp; test: Test C preemergence; assay type: in vivo, Amaranthus rudis; details: Amaranthus tuberculatus, pre-emergence, preemergence, read-out: Waterhemp plant response rating
How it was run: as §2

[11] = system: galium; test: Test C postemergence; assay type: in vivo, Galium aparine; details: Galium, post-emergence
How it was run: as §2

[12] = system: johnsongrass; test: Test C postemergence; assay type: in vivo, Sorghum halepense
How it was run: as §2

[13] = system: soybean; test: Test C postemergence; assay type: in vivo, Glycine max
How it was run: as §2

[14] = system: velvetleaf; test: Test C postemergence; assay type: in vivo, Abutilon theophrasti
How it was run: as §2

[15] = system: chickweed; test: Test C postemergence; assay type: in vivo, Stellaria media; details: Stellaria media, post-emergence
How it was run: as §2

[16] = 16 g ai/ha, scale 0 to 100 (0 no effect, 100 complete control)
[17] = 62 g ai/ha, scale 0 (no effect) to 100 (complete control)
[18] = 125 g ai/ha, scale 0 (no effect) to 100 (complete control)
[19] = 31 g ai/ha, postemergence, visual rating, scale 0 to 100 (0 no effect, 100 complete control), 13 to 15 days

FC(F)(F)c1cn(-c2ccccc2Oc2ncc(Cl)cn2)nn1 [Compound 166, 5-chloro-2-[2-[4-(trifluoromethyl)-1H-1,2,3-triazol-1-yl]phenoxy]pyrimidine]
5: Johnsongrass plant response rating [12, 19]
100%: pest or weed control at 125 g/ha ([1]; 125 g ai/ha, read-out: Plant response rating, Foxtail, Giant) | pest or weed control at 500 g/ha ([1]; 500 g ai/ha, read-out: Foxtail, Giant plant response rating) | pest or weed control at 500 g/ha ([2]; 500 g ai/ha, read-out: Plant response rating, Barnyardgrass) | pest or weed control at 500 g/ha ([3]; 500 g ai/ha, read-out: Plant response rating, Pigweed) | pest or weed control at 125 g/ha ([3]; 240 h, 125 g ai/ha, read-out: Pigweed plant response rating) | pest or weed control at 31 g/ha ([5]; Preemergence, 31 g ai/ha, scale 0 to 100, 0 no effect, 100 complete control, read-out: Plant response rating, Galium) | pest or weed control at 125 g/ha [6, 18] | pest or weed control at 62 g/ha ([8]; 62 g ai/ha, preemergence, scale 0 (no effect) to 100 (complete control), read-out: Barnyardgrass plant response rating) | pest or weed control at 125 g/ha ([8]; 125 g ai/ha, preemergence, scale 0 (no effect) to 100 (complete control), read-out: Barnyardgrass plant response rating) | pest or weed control at 31 g/ha ([8]; Preemergence, 31 g ai/ha, scale 0 to 100, 0 no effect, 100 complete control, read-out: Plant response rating, Barnyardgrass) | plant injury at 62 g/ha [9, 17] | plant injury at 125 g/ha [9, 18] | pest or weed control at 16 g/ha [10, 16] | pest or weed control at 62 g/ha [10, 17] | pest or weed control at 125 g/ha [10, 18]
80%: pest or weed control at 16 g/ha ([11]; 16 g ai/ha, postemergence, 0 is no effect, 100 is complete control, read-out: Plant response rating (0 to 100), Galium) | pest or weed control at 62 g/ha ([14]; Abutilon theophrasti, post-emergence, Postemergence, 62 g ai/ha, scale 0 to 100 (0 no effect, 100 complete control), read-out: Plant response rating, Velvetleaf) | pest or weed control at 31 g/ha ([15]; 31 g ai/ha, postemergence, visual rating, scale 0 to 100 (0 no effect, 100 complete control), 13 to 15 days, read-out: Chickweed plant response rating)
5%: pest or weed control at 16 g/ha ([12]; Sorghum halepense, post-emergence, 16 g ai/ha, postemergence, 0 is no effect, 100 is complete control, read-out: Plant response rating (0 to 100), Johnsongrass) | pest or weed control at 125 g/ha ([12]; Sorghum halepense, post-emergence, 125 g ai/ha, postemergence, visual rating, scale 0 to 100 (0 no effect, 100 complete control), read-out: Plant response rating, Johnsongrass) | pest or weed control at 62 g/ha ([12]; Sorghum halepense, post-emergence, Postemergence, 62 g ai/ha, scale 0 to 100 (0 no effect, 100 complete control), read-out: Plant response rating, Johnsongrass)
98%: pest or weed control at 16 g/ha ([5]; 16 g ai/ha, preemergence, scale 0 to 100 (0 no effect, 100 complete control), read-out: Galium plant response rating) | pest or weed control at 62 g/ha [6, 17]
45%: pest or weed control at 16 g/ha ([14]; Abutilon theophrasti, post-emergence, 16 g ai/ha, postemergence, 0 is no effect, 100 is complete control, read-out: Plant response rating (0 to 100), Velvetleaf)
60%: pest or weed control at 250 g/ha [4] | plant injury at 16 g/ha [7, 16] | pest or weed control at 16 g/ha ([15]; 16 g ai/ha, postemergence, 0 is no effect, 100 is complete control, read-out: Plant response rating (0 to 100), Chickweed)
15%: pest or weed control at 16 g/ha [6, 16]
90%: pest or weed control at 125 g/ha ([2]; 125 g ai/ha, read-out: Barnyardgrass plant response rating) | plant injury at 16 g/ha [9, 16] | pest or weed control at 62 g/ha ([11]; Postemergence, 62 g ai/ha, scale 0 to 100 (0 no effect, 100 complete control), read-out: Plant response rating, Galium) | Soybean plant response rating (crop injury, 0-100 scale) at 62 g/ha ([13]; Glycine max, post-emergence, Postemergence, 62 g ai/ha, scale 0 to 100 (0 no effect, 100 complete control)) | pest or weed control at 62 g/ha ([15]; Postemergence, 62 g ai/ha, scale 0 to 100 (0 no effect, 100 complete control), read-out: Plant response rating, Chickweed)
40%: Soybean plant response rating (crop injury, 0-100 scale) at 16 g/ha ([13]; Glycine max, post-emergence, 16 g ai/ha, postemergence, 0 is no effect, 100 is complete control)
85%: pest or weed control at 16 g/ha ([8]; 16 g ai/ha, preemergence, scale 0 to 100 (0 no effect, 100 complete control), read-out: Barnyardgrass plant response rating) | pest or weed control at 31 g/ha ([11]; 31 g ai/ha, postemergence, visual rating, scale 0 to 100 (0 no effect, 100 complete control), 13 to 15 days, read-out: Galium plant response rating) | pest or weed control at 125 g/ha ([14]; Abutilon theophrasti, post-emergence, 125 g ai/ha, postemergence, visual rating, scale 0 to 100 (0 no effect, 100 complete control), read-out: Plant response rating, Velvetleaf)
95%: pest or weed control at 62 g/ha ([5]; 62 g ai/ha, preemergence, scale 0 (no effect) to 100 (complete control), read-out: Galium plant response rating) | pest or weed control at 125 g/ha ([5]; 125 g ai/ha, preemergence, scale 0 (no effect) to 100 (complete control), read-out: Galium plant response rating) | plant injury at 62 g/ha [7, 17] | plant injury at 125 g/ha [7, 18] | pest or weed control at 125 g/ha ([11]; 125 g ai/ha, postemergence, visual rating, scale 0 to 100 (0 no effect, 100 complete control), read-out: Plant response rating, Galium) | Soybean plant response rating (crop injury, 0-100 scale) at 125 g/ha ([13]; Glycine max, post-emergence, 125 g ai/ha, postemergence, visual rating, scale 0 to 100 (0 no effect, 100 complete control), read-out: Plant response rating, Soybean) | pest or weed control at 125 g/ha ([15]; 125 g ai/ha, postemergence, visual rating, scale 0 to 100 (0 no effect, 100 complete control), read-out: Plant response rating, Chickweed)
55: Velvetleaf plant response rating [14, 19]
95: Soybean plant response rating [13, 19]

Source: patent US9695155B2, “Herbicidal substituted pyrimidinyloxy benzene compounds” (E. I. DU PONT DE NEMOURS AND COMPANY, priority 2013, dated 2017)
